Calls of active or inactive are those of the source. No cut-off for these calls is given here.
What was measured:
[1] = target: Serine/threonine-protein kinase DCLK3 (Homo sapiens) (UniProt Q9C098); experiment: Inhibition of DCAMKL3(h) at 10.0 µM in the Eurofins Kinase panel; conditions: Compound concentration 10.0 uM
[2] = target: Ephrin type-A receptor 2 (Homo sapiens) (UniProt P29317); experiment: Inhibition of EphA2(h) at 10.0 µM in the Eurofins Kinase panel; conditions: Compound concentration 10.0 uM
[3] = target: Cyclin-dependent kinase-like 1 (Homo sapiens) (UniProt Q00532); experiment: Inhibition of CDKL1(h) at 10.0 µM in the Eurofins Kinase panel; conditions: Compound concentration 10.0 uM
[4] = target: ALK tyrosine kinase receptor (Homo sapiens) (UniProt Q9UM73); experiment: Inhibition of ALK(h) at 10.0 µM in the Eurofins Kinase panel; conditions: Compound concentration 10.0 uM
[5] = target: Serine/threonine-protein kinase 32C (Homo sapiens) (UniProt Q86UX6); experiment: Inhibition of STK32C(h) at 10.0 µM in the Eurofins Kinase panel; conditions: Compound concentration 10.0 uM
[6] = target: T1, Alpha-2B adrenergic receptor (Homo sapiens) (UniProt P18089); conditions: Compound concentration 10.0 uM
T1 sequence (whole entry): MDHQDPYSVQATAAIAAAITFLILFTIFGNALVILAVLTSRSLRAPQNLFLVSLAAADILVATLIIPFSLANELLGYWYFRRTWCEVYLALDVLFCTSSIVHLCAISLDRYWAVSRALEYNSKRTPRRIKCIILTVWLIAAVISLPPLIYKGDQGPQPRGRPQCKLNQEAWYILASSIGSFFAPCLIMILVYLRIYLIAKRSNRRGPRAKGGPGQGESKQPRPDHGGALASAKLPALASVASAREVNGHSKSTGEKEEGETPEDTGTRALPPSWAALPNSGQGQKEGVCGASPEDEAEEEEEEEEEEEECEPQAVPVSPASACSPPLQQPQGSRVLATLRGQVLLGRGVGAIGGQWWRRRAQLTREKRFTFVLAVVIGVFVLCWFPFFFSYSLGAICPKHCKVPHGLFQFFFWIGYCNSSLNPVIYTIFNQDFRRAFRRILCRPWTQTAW

[7] = target: Tyrosine-protein kinase receptor UFO (Homo sapiens) (UniProt P30530); experiment: Inhibition of Axl(h) at 10.0 µM in the Eurofins Kinase panel; conditions: Compound concentration 10.0 uM
[8] = target: T2, Muscarinic acetylcholine receptor M2 (Homo sapiens) (UniProt P08172); conditions: Compound concentration 10.0 uM
T2 sequence (whole entry): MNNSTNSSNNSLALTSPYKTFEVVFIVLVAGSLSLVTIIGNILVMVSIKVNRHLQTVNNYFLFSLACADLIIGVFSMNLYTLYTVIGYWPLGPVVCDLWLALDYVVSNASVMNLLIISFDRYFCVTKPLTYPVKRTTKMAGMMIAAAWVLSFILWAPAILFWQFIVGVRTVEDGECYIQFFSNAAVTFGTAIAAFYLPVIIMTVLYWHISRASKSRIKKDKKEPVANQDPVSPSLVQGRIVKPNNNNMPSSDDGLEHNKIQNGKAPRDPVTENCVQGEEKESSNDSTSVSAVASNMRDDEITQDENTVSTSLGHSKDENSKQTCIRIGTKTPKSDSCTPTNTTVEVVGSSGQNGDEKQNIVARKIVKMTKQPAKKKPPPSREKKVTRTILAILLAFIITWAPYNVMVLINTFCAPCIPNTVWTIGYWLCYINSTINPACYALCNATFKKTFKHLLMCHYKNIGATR

[9] = target: Sigma non-opioid intracellular receptor 1 (Homo sapiens) (UniProt Q99720); conditions: Compound concentration 10.0 uM
[10] = target: Mitogen-activated protein kinase kinase kinase 11 (Homo sapiens) (UniProt Q16584); experiment: Inhibition of MLK3(h) at 10.0 µM in the Eurofins Kinase panel; conditions: Compound concentration 10.0 uM
[11] = target: Insulin receptor (Homo sapiens) (UniProt P06213); experiment: Inhibition of IR(h) at 10.0 µM in the Eurofins Kinase panel; conditions: Compound concentration 10.0 uM
[12] = target: Dual specificity protein kinase CLK1 (Homo sapiens) (UniProt P49759); experiment: Inhibition of CLK1(h) at 10.0 µM in the Eurofins Kinase panel; conditions: Compound concentration 10.0 uM
[13] = target: Interleukin-1 receptor-associated kinase 4 (Homo sapiens) (UniProt Q9NWZ3); experiment: Inhibition of IRAK4(h) at 10.0 µM in the Eurofins Kinase panel; conditions: Compound concentration 10.0 uM
[14] = target: Vasopressin V1a receptor (Homo sapiens, UniProt P37288); experiment: Inhibition of Vasopressin V1A at 10.0 µM in the Eurofins-Panlabs selectivity screen
[15] = target: Histamine H1 receptor (Homo sapiens) (UniProt P35367); conditions: Compound concentration 10.0 uM
[16] = target: Macrophage-stimulating protein receptor (Homo sapiens) (UniProt Q04912); experiment: Inhibition of Ron(h) at 10.0 µM in the Eurofins Kinase panel; conditions: Compound concentration 10.0 uM
[17] = target: Serine/threonine-protein kinase WNK1 (Homo sapiens) (UniProt Q9H4A3); experiment: Inhibition of WNK1(h) at 10.0 µM in the Eurofins Kinase panel; conditions: Compound concentration 10.0 uM
[18] = target: Myosin-IIIb (Homo sapiens) (UniProt Q8WXR4); experiment: Inhibition of MYO3B(h) at 10.0 µM in the Eurofins Kinase panel; conditions: Compound concentration 10.0 uM
[19] = target: Serine/threonine-protein kinase PAK 3 (Homo sapiens) (UniProt O75914); experiment: Inhibition of PAK3(h) at 10.0 µM in the Eurofins Kinase panel; conditions: Compound concentration 10.0 uM
[20] = target: Casein kinase I isoform gamma-3 (Homo sapiens) (UniProt Q9Y6M4); experiment: Inhibition of CK1gamma3(h) at 10.0 µM in the Eurofins Kinase panel; conditions: Compound concentration 10.0 uM
[21] = target: LIM domain kinase 2 (Homo sapiens) (UniProt P53671); experiment: Inhibition of LIMK2(h) at 10.0 µM in the Eurofins Kinase panel; conditions: Compound concentration 10.0 uM
[22] = target: CDK4/Cyclin D3 (Homo sapiens) (UniProt P11802+P30281); experiment: Inhibition of CDK4/cyclinD3(h) at 10.0 µM in the Eurofins Kinase panel; type: protein-complex assay; conditions: Compound concentration 10.0 uM
[23] = target: Mitogen-activated protein kinase kinase kinase kinase 4 (Homo sapiens) (UniProt O95819); experiment: Inhibition of MAP4K4(h) at 10.0 µM in the Eurofins Kinase panel; conditions: Compound concentration 10.0 uM
[24] = target: Dual specificity mitogen-activated protein kinase kinase 1 (Homo sapiens) (UniProt Q02750); experiment: Inhibition of MEK1(h) at 10.0 µM in the Eurofins Kinase panel; conditions: Compound concentration 10.0 uM
[25] = target: Homeodomain-interacting protein kinase 3 (Homo sapiens) (UniProt Q9H422); experiment: Inhibition of HIPK3(h) at 10.0 µM in the Eurofins Kinase panel; conditions: Compound concentration 10.0 uM
[26] = target: Kappa-type opioid receptor (Homo sapiens, UniProt P41145); conditions: Compound concentration 10.0 uM
[27] = target: Serine/threonine-protein kinase NLK (Homo sapiens) (UniProt Q9UBE8); experiment: Inhibition of NLK (h) at 10.0 µM in the Eurofins Kinase panel; conditions: Compound concentration 10.0 uM
[28] = target: Ephrin type-A receptor 1 (Homo sapiens) (UniProt P21709); experiment: Inhibition of EphA1(h) at 10.0 µM in the Eurofins Kinase panel; conditions: Compound concentration 10.0 uM
[29] = target: Activin receptor type-1-like (Homo sapiens) (UniProt P37023); experiment: Inhibition of ALK1(h) at 10.0 µM in the Eurofins Kinase panel; conditions: Compound concentration 10.0 uM

Sigma non-opioid intracellular receptor 1 (Homo sapiens), sequence (Q99720 whole entry): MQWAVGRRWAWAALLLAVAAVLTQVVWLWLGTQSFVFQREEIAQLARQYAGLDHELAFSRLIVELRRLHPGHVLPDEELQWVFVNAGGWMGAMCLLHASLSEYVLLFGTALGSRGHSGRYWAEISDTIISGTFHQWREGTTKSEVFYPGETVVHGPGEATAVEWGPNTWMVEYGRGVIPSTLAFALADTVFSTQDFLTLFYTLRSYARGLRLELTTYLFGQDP
Histamine H1 receptor (Homo sapiens), sequence (P35367 whole entry): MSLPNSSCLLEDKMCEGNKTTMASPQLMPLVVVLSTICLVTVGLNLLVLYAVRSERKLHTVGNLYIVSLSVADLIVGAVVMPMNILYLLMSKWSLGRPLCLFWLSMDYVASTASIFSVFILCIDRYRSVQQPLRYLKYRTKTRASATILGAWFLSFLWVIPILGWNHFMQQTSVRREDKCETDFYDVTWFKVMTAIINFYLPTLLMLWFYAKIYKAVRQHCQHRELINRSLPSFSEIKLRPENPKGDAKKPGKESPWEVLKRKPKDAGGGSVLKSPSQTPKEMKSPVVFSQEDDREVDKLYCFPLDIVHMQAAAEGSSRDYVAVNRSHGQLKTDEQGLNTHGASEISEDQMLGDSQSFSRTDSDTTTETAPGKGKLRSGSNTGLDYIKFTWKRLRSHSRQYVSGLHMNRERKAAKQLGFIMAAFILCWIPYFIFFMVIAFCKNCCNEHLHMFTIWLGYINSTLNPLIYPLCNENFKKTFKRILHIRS
Homeodomain-interacting protein kinase 3 (Homo sapiens), sequence (Q9H422 whole entry, looked up): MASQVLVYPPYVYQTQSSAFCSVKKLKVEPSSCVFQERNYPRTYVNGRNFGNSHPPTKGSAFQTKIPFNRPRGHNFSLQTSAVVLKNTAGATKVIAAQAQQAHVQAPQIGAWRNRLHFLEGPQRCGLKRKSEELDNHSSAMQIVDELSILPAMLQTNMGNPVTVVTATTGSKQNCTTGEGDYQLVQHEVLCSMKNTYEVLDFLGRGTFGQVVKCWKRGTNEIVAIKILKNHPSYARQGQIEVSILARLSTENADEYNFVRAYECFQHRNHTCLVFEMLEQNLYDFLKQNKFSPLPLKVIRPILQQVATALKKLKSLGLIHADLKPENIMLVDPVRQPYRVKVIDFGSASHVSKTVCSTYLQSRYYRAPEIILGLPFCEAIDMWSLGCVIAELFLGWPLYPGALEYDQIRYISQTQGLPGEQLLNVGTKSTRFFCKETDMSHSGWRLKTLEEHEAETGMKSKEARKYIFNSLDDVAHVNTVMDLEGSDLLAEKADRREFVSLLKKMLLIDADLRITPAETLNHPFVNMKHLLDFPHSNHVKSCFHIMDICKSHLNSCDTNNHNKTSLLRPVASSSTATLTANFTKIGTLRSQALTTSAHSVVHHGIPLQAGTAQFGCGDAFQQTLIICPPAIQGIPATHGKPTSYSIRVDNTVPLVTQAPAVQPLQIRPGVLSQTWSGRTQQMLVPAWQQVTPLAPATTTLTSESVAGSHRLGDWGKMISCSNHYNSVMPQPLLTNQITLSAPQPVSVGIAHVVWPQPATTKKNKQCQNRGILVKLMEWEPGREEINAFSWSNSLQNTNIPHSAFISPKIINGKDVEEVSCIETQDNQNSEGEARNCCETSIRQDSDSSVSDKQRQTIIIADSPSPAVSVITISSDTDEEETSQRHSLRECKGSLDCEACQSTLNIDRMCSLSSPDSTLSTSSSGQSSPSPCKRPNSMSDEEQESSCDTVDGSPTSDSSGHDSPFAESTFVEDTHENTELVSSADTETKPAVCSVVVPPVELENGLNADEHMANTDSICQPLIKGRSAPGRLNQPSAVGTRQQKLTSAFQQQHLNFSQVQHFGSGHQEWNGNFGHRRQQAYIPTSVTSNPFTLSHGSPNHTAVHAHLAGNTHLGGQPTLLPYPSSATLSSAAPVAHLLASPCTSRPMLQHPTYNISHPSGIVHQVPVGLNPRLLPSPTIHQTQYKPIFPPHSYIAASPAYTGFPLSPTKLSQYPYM
LIM domain kinase 2 (Homo sapiens), sequence (P53671 whole entry, looked up, the tested form may be a part): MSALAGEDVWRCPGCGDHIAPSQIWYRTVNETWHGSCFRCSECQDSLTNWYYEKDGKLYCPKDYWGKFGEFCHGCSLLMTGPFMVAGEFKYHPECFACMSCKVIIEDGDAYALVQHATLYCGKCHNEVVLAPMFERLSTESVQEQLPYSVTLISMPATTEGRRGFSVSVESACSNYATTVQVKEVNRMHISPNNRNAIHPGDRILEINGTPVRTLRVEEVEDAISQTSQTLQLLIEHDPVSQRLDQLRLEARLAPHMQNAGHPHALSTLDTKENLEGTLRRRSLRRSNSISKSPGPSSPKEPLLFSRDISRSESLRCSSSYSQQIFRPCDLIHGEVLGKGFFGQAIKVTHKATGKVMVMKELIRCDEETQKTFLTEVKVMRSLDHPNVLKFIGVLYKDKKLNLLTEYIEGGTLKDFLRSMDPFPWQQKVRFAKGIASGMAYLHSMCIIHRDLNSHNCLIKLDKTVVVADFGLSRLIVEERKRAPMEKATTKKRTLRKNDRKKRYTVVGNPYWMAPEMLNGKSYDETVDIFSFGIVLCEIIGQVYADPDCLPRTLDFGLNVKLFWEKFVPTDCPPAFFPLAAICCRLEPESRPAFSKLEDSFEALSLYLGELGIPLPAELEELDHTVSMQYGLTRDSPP
Serine/threonine-protein kinase WNK1 (Homo sapiens), sequence (Q9H4A3 whole entry, looked up): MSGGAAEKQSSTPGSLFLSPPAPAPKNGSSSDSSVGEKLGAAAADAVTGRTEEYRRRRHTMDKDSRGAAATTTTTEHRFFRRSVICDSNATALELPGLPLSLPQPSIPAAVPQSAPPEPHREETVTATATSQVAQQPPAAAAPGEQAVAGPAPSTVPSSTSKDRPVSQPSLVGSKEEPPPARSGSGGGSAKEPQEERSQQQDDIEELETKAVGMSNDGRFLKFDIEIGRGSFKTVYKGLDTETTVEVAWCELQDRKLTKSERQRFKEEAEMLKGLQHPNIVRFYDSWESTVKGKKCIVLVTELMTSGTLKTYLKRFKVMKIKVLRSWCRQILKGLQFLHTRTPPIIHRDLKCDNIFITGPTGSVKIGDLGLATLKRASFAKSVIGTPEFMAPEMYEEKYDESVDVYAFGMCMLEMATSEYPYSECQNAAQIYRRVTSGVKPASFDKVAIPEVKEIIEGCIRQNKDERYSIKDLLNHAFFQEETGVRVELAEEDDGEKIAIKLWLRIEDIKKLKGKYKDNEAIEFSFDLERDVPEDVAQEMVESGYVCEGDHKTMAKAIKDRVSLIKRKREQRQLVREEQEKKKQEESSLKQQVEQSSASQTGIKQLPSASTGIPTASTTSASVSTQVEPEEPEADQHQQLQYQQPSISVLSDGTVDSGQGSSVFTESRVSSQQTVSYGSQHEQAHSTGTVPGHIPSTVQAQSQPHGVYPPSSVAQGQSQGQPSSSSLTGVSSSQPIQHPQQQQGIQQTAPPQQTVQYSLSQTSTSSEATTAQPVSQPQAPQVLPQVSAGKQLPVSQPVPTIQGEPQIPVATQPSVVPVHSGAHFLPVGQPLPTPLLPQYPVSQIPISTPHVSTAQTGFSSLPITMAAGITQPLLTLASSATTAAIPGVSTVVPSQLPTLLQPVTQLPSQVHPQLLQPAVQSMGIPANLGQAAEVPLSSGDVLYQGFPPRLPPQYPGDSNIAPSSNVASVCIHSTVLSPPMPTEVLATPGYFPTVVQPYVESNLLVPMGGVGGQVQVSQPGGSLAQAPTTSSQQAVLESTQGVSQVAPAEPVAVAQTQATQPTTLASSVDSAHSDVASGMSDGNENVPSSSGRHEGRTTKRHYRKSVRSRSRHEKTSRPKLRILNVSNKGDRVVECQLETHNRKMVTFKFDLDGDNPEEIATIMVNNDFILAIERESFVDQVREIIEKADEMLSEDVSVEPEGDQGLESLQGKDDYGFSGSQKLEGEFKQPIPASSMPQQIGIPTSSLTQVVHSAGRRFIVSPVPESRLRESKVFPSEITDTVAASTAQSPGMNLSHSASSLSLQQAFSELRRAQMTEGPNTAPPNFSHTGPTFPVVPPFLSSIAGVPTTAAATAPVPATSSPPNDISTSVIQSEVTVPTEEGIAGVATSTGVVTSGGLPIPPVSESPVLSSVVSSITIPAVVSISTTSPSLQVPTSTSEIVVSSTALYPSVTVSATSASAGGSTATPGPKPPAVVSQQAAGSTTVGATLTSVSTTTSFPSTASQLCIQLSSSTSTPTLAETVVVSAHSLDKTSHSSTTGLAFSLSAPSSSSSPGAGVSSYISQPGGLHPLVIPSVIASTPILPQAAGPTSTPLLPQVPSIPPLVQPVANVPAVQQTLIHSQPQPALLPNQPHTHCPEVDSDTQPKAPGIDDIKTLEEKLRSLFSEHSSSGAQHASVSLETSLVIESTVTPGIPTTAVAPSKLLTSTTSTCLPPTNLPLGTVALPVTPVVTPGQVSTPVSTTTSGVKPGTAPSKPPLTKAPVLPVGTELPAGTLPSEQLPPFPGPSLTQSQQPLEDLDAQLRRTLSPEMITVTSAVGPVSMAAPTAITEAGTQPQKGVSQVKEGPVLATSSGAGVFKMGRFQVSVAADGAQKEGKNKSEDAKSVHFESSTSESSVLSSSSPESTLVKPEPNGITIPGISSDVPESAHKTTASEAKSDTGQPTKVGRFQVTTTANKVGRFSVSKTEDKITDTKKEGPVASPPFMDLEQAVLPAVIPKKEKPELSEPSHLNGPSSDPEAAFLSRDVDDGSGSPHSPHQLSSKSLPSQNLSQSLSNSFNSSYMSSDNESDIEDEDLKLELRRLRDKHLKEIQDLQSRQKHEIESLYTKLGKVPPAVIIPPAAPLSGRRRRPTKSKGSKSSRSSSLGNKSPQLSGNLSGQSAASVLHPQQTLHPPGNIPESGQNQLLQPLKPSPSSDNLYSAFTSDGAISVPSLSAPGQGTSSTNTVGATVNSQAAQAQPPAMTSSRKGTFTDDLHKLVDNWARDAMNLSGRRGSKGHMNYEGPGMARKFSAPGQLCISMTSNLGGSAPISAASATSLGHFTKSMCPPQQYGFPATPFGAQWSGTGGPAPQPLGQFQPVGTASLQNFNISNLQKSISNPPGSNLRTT

| SMILES | inhibition [1] [%] | inhibition [2] [%] | inhibition [3] [%] | inhibition [4] [%] | inhibition [5] [%] | inhibition [6] [%] | inhibition [7] [%] | inhibition [8] [%] | inhibition [9] [%] | inhibition [10] [%] | inhibition [11] [%] | inhibition [12] [%] | inhibition [13] [%] | Ki [14] | inhibition [15] [%] | inhibition [16] [%] | inhibition [17] [%] | inhibition [18] [%] | inhibition [19] [%] | inhibition [20] [%] | also measured |
| --- | --- | --- | --- | --- | --- | --- | --- | --- | --- | --- | --- | --- | --- | --- | --- | --- | --- | --- | --- | --- | --- |
| O=c1n(Cc2cncn2-c2cccc(Cl)c2)nc(-c2ccc(Cl)cc2)n1C[C@H](O)C(F)(F)F | -6.07 | -5.2 | 6.34 | -8.94 | -2.95 | 0.1 | 3.23 | 17 | 24.1 | 14.9 | -7.3 | 7.05 | -1.29 | > 10 µM (not active) | 28.5 | -7.87 | -5.38 | 6.86 | 7.29 | -8.47 | inhibition [21]: 1.5%; inhibition [22]: 7.51%; inhibition [23]: 5.56%; inhibition [24]: 4.57%; inhibition [25]: 2.57%; inhibition [26]: 10%; inhibition [27]: -1.74%; inhibition [28]: 2.94%; inhibition [29]: -1.34% |
| C[C@H](O)c1nc(Cn2nc(-c3ccc(Cl)cc3)n(C[C@H](O)C(F)(F)F)c2=O)nn1-c1cccc(Cl)c1 [PECAVAPTAN] | -4.82 | -2 | 1.83 | -3.75 | 1.11 | 16.1 | 2.01 | 7 | 27 | 11.3 | -5.21 | 7.77 | 3.56 | 0.0005 µM (active) | 12 | -9.41 | 6.35 | 2.49 | 1.73 | -8.75 | inhibition [21]: 0.25%; inhibition [22]: 5.58%; inhibition [23]: -1.46%; inhibition [24]: -3.73%; inhibition [25]: 3.3%; inhibition [26]: 19%; inhibition [27]: -2.51%; inhibition [28]: 7.71%; inhibition [29]: -9.71% |
